# From patent US10000566B2, “Anti-CD33 antibodies and methods for treatment of acute myeloid leukemia using the same” (IMMUNOGEN INC., priority 2002, dated 2018)
# “Also recorded” adds a separate entry of the source.
# Assays:
# [1] = system: human THP-1 tumor xenografts; assay: Subcutaneous THP-1 tumor xenograft model in mice; type: in vivo; details: data not shown
# [2] = target: T1, CD33 on HL-60 cells (Homo sapiens, UniProt P20138); assay: Antibody and conjugate binding to HL-60 cells by flow cytometry
# T1 construct: endogenous in cells; host or cells: HL-60 human leukemic cell line (whole cells; plasma membranes prepared from HL-60)
# Method: HL-60 cells were incubated with various concentrations of either My9-6 antibody or My9-6-DM1. The cells were then washed and incubated with a secondary FITC-labeled anti-murine IgG antibody. Following an additional wash, cells were fixed with 2% formaldehyde and cell-associated fluorescence was quantified using a BD FACScan flow cytometer.
# [3] = system: HL-60 cells injected intravenously; assay: HL-60 cell mouse survival model; type: in vivo, SCID mice; details: treatment starting 11 days after cell injection
# Method: FIGS. 24A & B show anti-tumor efficacy of My9-6-DM1 compared with Gentuzumab ozogamicin and standard chemotherapy in an HL-60 survival model. HL-60 cells were intravenously injected into SCID mice. Indicated treatments were started 11 days following injection of cells. Treatments were i.v. daily ×5 except for Gentuzumab ozogamicin (Q4D×3).
# (§1) Subcutaneous tumor model—HL-60 human promyelocytic leukemia cells (5×10^6 cells in 0.1 mL) were subcutaneously inoculated into the right flank of female SCID mice. Mice were treated by intravenous injection into a lateral tail vein starting when tumors reached 100 mm^3 in size (400 mm^3 in large tumor model). Tumor size and mouse body weight were measured twice per week. Survival model—HL-60 cells (5×10^6 cells in 0.1 mL) were intravenously injected into the lateral tail vein of female SCID mice. Eleven days after tumor cell injection treatment was started. Mice were checked every day for moribund, tumor mass, or death. Body weight was measured twice per week.
# While the efficacy of My9-6-DM1 in the tumor xenograft model is striking, it is also of interest to look at the activity of the conjugate in a mouse survival model where HL-60 cells are injected directly into a mouse tail vein. In this model, control mice die between 30 and 50 days after cell injection. […] However, even in this model, standard chemotherapy provided no significant survival enhancement (FIG. 24B).
# [4] = system: Namalwa cells; assay: In vitro clonogenic cytotoxicity assay, CD33-negative cells; type: cell-based
# Method: (§2) The cytotoxicity of My9-6-DM1 was measured using the CD33-expressing THP-1 cell and the CD33-negative cell line Namalwa. Cells were plated in 96-well plates in media containing the conjugate and incubated at 37° C. until colonies had formed (2-3 weeks). Colonies were then scored, and the surviving fractions determined using Poisson distribution in the calculations.
# (§3) The cytotoxicity of My9-6-DM1 toward CD33 expressing cells (THP-1) compared to a CD33-negative cell line (Namalwa) was tested using a clonogenic assay, where cell killing activity is determined by quantifying the number of colonies that can grow following treatment.
# [5] = system: THP-1 cells; assay: In vitro clonogenic cytotoxicity assay, CD33-expressing cells; type: cell-based, human; details: THP-1, clonogenic assay
# Method: as §2, §3
# [6] = system: human HL-60 tumor cell xenografts; assay: Subcutaneous HL-60 tumor xenograft model in SCID mice; type: in vivo
# Method: as §1
# The efficacy of My9-6-DM1 in vivo was determined using SCID mice bearing human HL-60 tumor cell xenografts. HL-60 cells were injected subcutaneously and tumors were allowed to grow to an average size of 100 mm^3. Dosage is expressed as mg antibody in the conjugate, which corresponds to a DM1 dose of approximately 15 μg DM1 per mg of antibody. Tumor volume was measured as an indication of treatment efficacy and mouse body weight was monitored to indicate toxicity due to treatment.
# [7] = system: large HL-60 tumors; assay: Large HL-60 tumor xenograft model in SCID mice; type: in vivo
# Method: as §1
# Tumors were allowed to grow to a tumor volume of >400 mm^3 prior to the initiation of treatment. In addition, a comparison of the activity of My9-6-DM1 with standard chemotherapeutic drugs was conducted. […]
# [8] = nude mice; cited from earlier work
# [9] = target: T2, CD33 (Homo sapiens, UniProt P20138); details: Phase I; cited from earlier work
# T2 construct: Gemtuzumab ozogamicin was evaluated in phase I and II clinical studies; host or cells: patients (AML)
# [10] = system: leukemia cells (HL-60 cell cultures, HL-60 tumor xenografts in mice, marrow samples from AML patients); details: cited from earlier work
# [11] = in vivo; cited from earlier work
# [12] = target: T2, CD33; details: 9 mg/m^2 i.v. over 4 hours, repeated after 14 days; cited from earlier work
# [13] = 20 mg conjugated antibody/kg/day i.v. ×5 days
# [14] = second treatment identical to the first
# [15] = tumor volume >400 mm^3 at start of treatment
# [16] = 100 μg/kg, every 4 days for 3 doses
# T1 sequence (P20138 18-364): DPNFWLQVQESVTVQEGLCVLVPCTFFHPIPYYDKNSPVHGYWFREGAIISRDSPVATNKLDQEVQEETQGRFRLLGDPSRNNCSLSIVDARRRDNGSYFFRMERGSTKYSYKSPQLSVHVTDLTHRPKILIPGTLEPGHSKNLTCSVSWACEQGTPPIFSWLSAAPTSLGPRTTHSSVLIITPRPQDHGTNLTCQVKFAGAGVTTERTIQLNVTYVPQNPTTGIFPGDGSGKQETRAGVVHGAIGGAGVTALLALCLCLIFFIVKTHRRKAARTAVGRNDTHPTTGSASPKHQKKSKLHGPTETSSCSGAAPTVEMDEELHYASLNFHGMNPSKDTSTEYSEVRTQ
# T2 sequence (P20138 18-364): as above
substance,measurement,setting,value
My9-6-DM1: murine My9-6 antibody linked via SPP disulfide linker to the maytansinoid DM1,outcome of mice bearing THP-1 xenografts,[1],long-term cures
same,CD33 binding of conjugate compared with unmodified antibody,[2],maintained the specificity and binding affinity of the unmodified antibody; also recorded: comparable to the unmodified antibody
same,effect on survival,[3],dramatic increase in survival
same,mice alive at 70 days,[3]; i.v. daily ×5,7 of 8
same,toxicity toward CD33-negative cells,[4],No significant toxicity
same,cytotoxicity toward CD33-positive tumor cells,[5],potent antigen-specific cytotoxicity; also recorded: potent cell killing activity
same,mice showing complete cures,[6]; 13 mg/kg i.v. once a day for 5 days,2 of 5
same,tumor growth delay,"[6]; 13 mg/kg i.v. once a day for 5 days, the other 3 mice",approximately 20 days
same,toxicity,[6]; [13],no toxicity
same,tumor response,[6]; [13],complete eradication of the tumors
same,tumor response,[6]; 23 mg antibody/kg (350 μg DM1/kg) daily for 5 days,complete regression of the tumors
same,mouse body weight decrease,[6]; 23 mg antibody/kg daily for 5 days,12%
same,mice with regrowth of tumors,"[6]; 23 mg antibody/kg daily for 5 days, starting at day 70",two of the six
same,maximum body weight loss,[6]; 19 and 26 mg/kg i.v. once a day for 5 days,less than 10%
same,tumor response,"[6]; 19 and 26 mg/kg i.v. once a day for 5 days, tumors 100 mm^3",complete regression of the tumors
same,outcome of mice bearing HL-60 xenografts,[6]; i.v. once a day for 5 days,long-term cures
same,toxicity at curative doses,[6]; i.v. once a day for 5 days,little toxicity
same,response of relapsing tumors to second treatment,[6]; [14],complete regression
same,toxicity of second treatment,[6]; [14],no adverse toxicity
same,response of relapsed tumors to second treatment,[7]; second treatment of My9-6-DM1,sensitive to a second treatment
same,mice with relapsed tumors,[7]; [15],2 of 6
same,tumor response,[7]; [15],complete regression of large tumors
Gemtuzumab ozogamicin: humanized anti-CD33 antibody conjugated to calicheamicin [reference compound],published MTD,[8],0.3 mg/kg
same,effect on survival,[3],modest increase in survival
same,tumor growth delay,[6]; [16],about 25 days
same,tumor response,[6]; [16],modest tumor regression
same,toxicity in SCID mice,"[6]; 0.3 mg/kg, preliminary experiment, data not shown",too toxic
same,toxicity,"[6]; 100 and 200 μg/kg, every 4 days for 3 doses",Significant toxicity
same,maximum tolerated dose,"[6]; SCID mice, every 4 days for 3 doses",0.1 mg/kg
same,major toxicity observed,[9],myelosuppression
same,killing of leukemia cells,[10],specific killing of leukemia cells
same,toxicity in post-marketing reports,[11],venoocclusive disease (VOD)
same,response rate,[12],30%
